# Measurements taken from patent US9169290B2, “Peptides and their use” (priority 2007, dated 2015).
# Key:
# Assay in all cases: Broth dilution antifungal susceptibility testing, MIC
# Type in all cases: cell-based
# [1] = tested on: Alternaria spp.; conditions: Alternaria spp. strain DM 2006 1218a
# Procedure: (§1) Broth Dilution Antifungal Susceptibility Testing
# (§2) The sensitivity of relevant fungal strains to the peptides was determined using Clinical Laboratory Standard Institute (CLSI; formerly NCCLS) Approved Standards. Fungal susceptibility was tested using “Reference Method for Broth Dilution Antifungal Susceptibility Testing of Filamentous Fungi; Approved Standard M38-P”, and yeast susceptibility was tested using “Reference Method for Broth Dilution Antifungal Susceptibility Testing of Yeasts; Approved Standard—Second Edition M27-A”.
# [2] = tested on: Fusarium spp.; conditions: Fusarium spp. strain DM 2006 1133
# Procedure: as §1, §2
# [3] = tested on: Scopulariopsis brevicaulis; conditions: Scopulariopsis brevicaulis strain DM 2006 1025
# Procedure: as §1, §2
# [4] = tested on: Penicillium spp.; conditions: Penicillium spp. strain DM 2006 1285b
# Procedure: as §1, §2
# [5] = tested on: Fusarium solani; conditions: Fusarium solani strain NCPF2877
# Procedure: as §1, §2
Substance,MIC [1],MIC [2],MIC [3],MIC [4],MIC [5]
Poly-L-Lysine (MW 10-20 kDa) [NP108],62.5 (μg/ml),125 (μg/ml),3.9 (μg/ml),31.2 (μg/ml),256 (μg/ml)
Poly-L-Arginine (MW 5-15 kDa) [NP121],13.2 (μg/ml),156 (μg/ml),3.9 (μg/ml),15.6 (μg/ml),7.8 (μg/ml)
